Data from ChEMBL document CHEMBL1201862, “PubChem BioAssay data set” (2004).
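Cells were grown in 96-well plates and exposed to each compound for 48 hours at five concentrations; endpoints were interpolated linearly between bracketing concentrations, or set to the highest concentration if not reached. The concentration for 50% growth inhibition is given as GI50.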 Activity calls are given as the source filed them. No stated cut-off is given here; in the data, active = GI50 up to about 1.1 µM and inactive = higher.

Assays:
Assay in all cases: inhibition of tumour cell growth, NCI panel, 48 h
OVCAR-8 = tested on: OVCAR-8
KM12 = tested on: KM12
A498 = tested on: A498
TK-10 = tested on: TK-10
EKVX = tested on: EKVX
COLO 205 = tested on: COLO 205
786-0 = tested on: 786-0
RPMI-8226 = tested on: RPMI-8226
UO-31 = tested on: UO-31
A549 = tested on: A549
OVCAR-5 = tested on: OVCAR-5
SF-268 = tested on: SF-268
SK-MEL-2 = tested on: SK-MEL-2
HOP-62 = tested on: HOP-62
Malme-3M = tested on: Malme-3M
SNB-75 = tested on: SNB-75
NCI-H226 = tested on: NCI-H226
HT-29 = tested on: HT-29

Measured: GI50

O=C1[C@H](Cl)[C@H]2c3cc4ccccc4nc3Oc3ccccc3N12
inactive: OVCAR-8 51.3 µM | KM12 33.3 µM | A498 42.9 µM | TK-10 > 100 µM | EKVX 81.8 µM | COLO 205 54.8 µM | 786-0 36.8 µM | RPMI-8226 22.6 µM | UO-31 14.9 µM | A549 33.5 µM | OVCAR-5 67.3 µM | SF-268 25.8 µM | SK-MEL-2 36.5 µM | HOP-62 35.4 µM | Malme-3M 49.4 µM | SNB-75 1.4 µM | NCI-H226 75.9 µM | HT-29 69.8 µM

CCN(CC)C(=O)C/C(C)=N/NC(=O)c1ccncc1
inactive: OVCAR-8 > 100 µM | KM12 > 100 µM | TK-10 > 100 µM | EKVX > 100 µM | COLO 205 > 100 µM | 786-0 > 100 µM | RPMI-8226 > 100 µM | UO-31 > 100 µM | A549 > 100 µM | OVCAR-5 > 100 µM | SF-268 > 100 µM | SK-MEL-2 > 100 µM | HOP-62 > 100 µM | Malme-3M > 100 µM | SNB-75 > 100 µM | NCI-H226 > 100 µM | HT-29 > 100 µM

O=[N+]([O-])[C@@H]1C2C=CC(C2)[C@H]1Cl (some centres undefined)
inactive: OVCAR-8 > 100 µM | KM12 > 100 µM | A498 > 100 µM | TK-10 > 100 µM | EKVX > 100 µM | COLO 205 > 100 µM | 786-0 > 100 µM | RPMI-8226 > 100 µM | UO-31 > 100 µM | A549 > 100 µM | OVCAR-5 > 100 µM | SF-268 > 100 µM | SK-MEL-2 > 100 µM | HOP-62 > 100 µM | Malme-3M > 100 µM | SNB-75 > 100 µM | HT-29 > 100 µM

c1ccc2c(c1)OCCOCCOc1ccccc1OCCO2
inactive: OVCAR-8 78 µM | KM12 35.2 µM | A498 > 100 µM | TK-10 45.6 µM | EKVX 75 µM | COLO 205 50.5 µM | 786-0 86.9 µM | RPMI-8226 22.3 µM | UO-31 30 µM | A549 71 µM | OVCAR-5 77.3 µM | SF-268 > 100 µM | SK-MEL-2 90.4 µM | HOP-62 67.1 µM | Malme-3M 33.1 µM | SNB-75 47.1 µM | NCI-H226 79.6 µM | HT-29 33.3 µM

COc1nc(NC2OCC(OC(C)=O)C(OC(C)=O)C2OC(C)=O)c(-c2csc(N)n2)c(=O)n1C (centres undefined)
inactive: OVCAR-8 > 100 µM | KM12 > 100 µM | A498 > 100 µM | TK-10 > 100 µM | COLO 205 > 100 µM | 786-0 > 100 µM | RPMI-8226 > 100 µM | UO-31 > 100 µM | A549 > 100 µM | OVCAR-5 > 100 µM | SF-268 > 100 µM | SK-MEL-2 > 100 µM | HOP-62 > 100 µM | Malme-3M > 100 µM | SNB-75 > 100 µM | NCI-H226 > 100 µM | HT-29 > 100 µM

CC1=CC(=O)c2c(C=O)c(O)c(O)c(C(C)C)c2C1=O
inactive: A498 24.4 µM | COLO 205 25.1 µM | 786-0 19.8 µM | RPMI-8226 19.8 µM | UO-31 22 µM | OVCAR-5 35.5 µM | SF-268 20.9 µM | SK-MEL-2 23.3 µM | HOP-62 32.5 µM | Malme-3M 22.9 µM | SNB-75 40.7 µM | NCI-H226 10.6 µM

Cc1ccc(NC(=O)C2C(=O)N(c3ccc(C)c(C)c3)C(=O)C2N=N)cc1C (centres undefined)
inactive: OVCAR-8 99.5 µM | KM12 > 100 µM | A498 > 100 µM | TK-10 > 100 µM | EKVX > 100 µM | COLO 205 > 100 µM | 786-0 > 100 µM | UO-31 > 100 µM | A549 58.9 µM | OVCAR-5 > 100 µM | SF-268 > 100 µM | SK-MEL-2 > 100 µM | HOP-62 > 100 µM | Malme-3M > 100 µM | SNB-75 > 100 µM | NCI-H226 > 100 µM | HT-29 > 100 µM

O=C1CC(c2ccccc2)NCN1 (centres undefined)
inactive: OVCAR-8 > 100 µM | KM12 > 100 µM | A498 > 100 µM | TK-10 > 100 µM | EKVX > 100 µM | COLO 205 > 100 µM | 786-0 > 100 µM | RPMI-8226 > 100 µM | UO-31 > 100 µM | A549 > 100 µM | OVCAR-5 > 100 µM | SF-268 > 100 µM | SK-MEL-2 > 100 µM | HOP-62 > 100 µM | Malme-3M > 100 µM | SNB-75 > 100 µM | NCI-H226 > 100 µM | HT-29 > 100 µM

Cc1c(C(=O)/C=C/c2ccccc2O)c(=O)n(-c2ccccc2)n1C
inactive: OVCAR-8 15.6 µM | KM12 > 10 µM | A498 27.5 µM | TK-10 90.6 µM | EKVX 68.7 µM | COLO 205 26.4 µM | 786-0 20.4 µM | UO-31 > 10 µM | A549 34 µM | OVCAR-5 66.8 µM | SF-268 37.8 µM | SK-MEL-2 18 µM | Malme-3M 19.4 µM | SNB-75 50.6 µM | NCI-H226 33.5 µM | HT-29 35.5 µM

S=C(Nc1ccccc1)Nc1ccccc1SC(/C=C/NNC1=NN=C(c2ccccc2)C(c2ccccc2)N1)c1ccccc1 (centres undefined)
inactive: OVCAR-8 > 100 µM | KM12 > 100 µM | A498 > 100 µM | TK-10 > 100 µM | EKVX > 100 µM | COLO 205 > 100 µM | 786-0 81.5 µM | RPMI-8226 59 µM | A549 > 100 µM | OVCAR-5 > 100 µM | SF-268 > 100 µM | SK-MEL-2 > 100 µM | HOP-62 16.7 µM | Malme-3M > 100 µM | HT-29 > 100 µM

CCOC1=C2C(=O)OC(=O)C2C2CCCCC2=C1 (centres undefined)
inactive: OVCAR-8 > 100 µM | KM12 > 100 µM | A498 > 10 µM | TK-10 > 100 µM | EKVX > 100 µM | COLO 205 > 100 µM | 786-0 > 100 µM | RPMI-8226 > 100 µM | UO-31 > 100 µM | A549 > 100 µM | SF-268 > 100 µM | SK-MEL-2 > 100 µM | HOP-62 > 100 µM | Malme-3M > 100 µM | SNB-75 > 100 µM | HT-29 > 100 µM

Cc1ccc(-c2nc3c(C(=O)NCCN(C)C)cccc3[nH]2)cc1
inactive: OVCAR-8 15.2 µM | KM12 20 µM | A498 13 µM | TK-10 17.7 µM | EKVX 24.4 µM | COLO 205 8 µM | 786-0 24.4 µM | UO-31 9.79 µM | A549 11.2 µM | OVCAR-5 20.9 µM | SF-268 18.5 µM | SK-MEL-2 18.5 µM | HOP-62 15.9 µM | SNB-75 18 µM | NCI-H226 11.9 µM | HT-29 15.5 µM

O=C(N/C(=C\c1ccc(/C=C(\NC(=O)c2ccccc2)c2nc3cc(Cl)ccc3[nH]2)cc1)c1nc2cc(Cl)ccc2[nH]1)c1ccccc1
inactive: OVCAR-8 27.7 µM | KM12 14 µM | A498 22.9 µM | TK-10 28.6 µM | EKVX 29 µM | COLO 205 24.3 µM | 786-0 25.6 µM | RPMI-8226 3.99 µM | UO-31 25.2 µM | A549 24.9 µM | OVCAR-5 > 100 µM | SF-268 11.8 µM | SK-MEL-2 36.7 µM | HOP-62 63.4 µM | Malme-3M 87.9 µM | SNB-75 24.4 µM | NCI-H226 > 100 µM | HT-29 26.3 µM

COc1cc2c(cc1OC)[Se]c1cc(OC)c(OC)cc1[Se]2
inactive: OVCAR-8 > 10 µM | KM12 6.15 µM | A498 > 10 µM | TK-10 > 10 µM | EKVX > 10 µM | COLO 205 > 10 µM | 786-0 > 10 µM | RPMI-8226 > 10 µM | UO-31 > 10 µM | A549 > 10 µM | OVCAR-5 > 10 µM | SF-268 > 10 µM | SK-MEL-2 > 10 µM | HOP-62 > 10 µM | Malme-3M > 10 µM | SNB-75 6.84 µM | NCI-H226 > 10 µM | HT-29 6.81 µM

COc1c(O)c2c3c(cc(C)cc3c1C(C)C)OC2
inactive: OVCAR-8 > 100 µM | KM12 > 100 µM | TK-10 > 100 µM | EKVX > 100 µM | COLO 205 > 100 µM | 786-0 > 100 µM | RPMI-8226 > 100 µM | UO-31 > 100 µM | A549 > 100 µM | OVCAR-5 > 100 µM | SF-268 > 100 µM | SK-MEL-2 > 100 µM | Malme-3M > 100 µM | SNB-75 > 100 µM | NCI-H226 > 100 µM | HT-29 > 100 µM

O=C(CSc1nnc[nH]1)C[P+](c1ccccc1)(c1ccccc1)c1ccccc1
inactive: OVCAR-8 > 100 µM | KM12 > 100 µM | TK-10 > 100 µM | EKVX > 100 µM | COLO 205 > 100 µM | 786-0 > 100 µM | RPMI-8226 > 10 µM | UO-31 > 100 µM | A549 > 100 µM | OVCAR-5 > 100 µM | SF-268 > 100 µM | SK-MEL-2 > 100 µM | HOP-62 > 100 µM | Malme-3M > 100 µM | SNB-75 27.4 µM
